Experiments:
[1] = system: α-glucosidase; assay: Negative enzyme control experiment, α-glucosidase; format: biochemical; settings: 0.1 Unit, MES buffer pH 6.8, 37° C., 20 h
Description: (§1) Compounds 1 and 2 were subjected to an α-glucosidase, α-fucosidase and α-galactosidase.
(§2) Negative enzyme control experiments. A solution of compound 1 or 2 (0.004 mmol) and α-glucosidase, α-galactosidase or α-L-fucosidase (0.1 Unit) in MES buffer (0.05 M; pH 6.8 for α-glucosidase, pH 6.5 for α-galactosidase or pH 5.5 for α-L-fucosidase; 1 ml) was incubated at 37° C. for 20 h, after which the reaction mixture was freezing-dried, and the solid residue was analyzed by ^1H NMR spectrometry and mass spectrometry.

[2] = system: α-L-fucosidase; assay: Negative enzyme control experiment, α-L-fucosidase; format: biochemical; settings: 0.1 Unit, MES buffer pH 5.5, 37° C., 20 h
Description: as §1, §2

[3] = molecular target: T1, human lysosomal mannosidase (HLM) (Homo sapiens, UniProt O00754); assay: Enzymatic cleavage of prodrugs by human lysosomal mannosidase monitored by 1H NMR; format: biochemical; settings: HLM 20 mU, 80 nmol compound, sodium acetate buffer pH 5.6, 37° C.
T1 sequence (O00754 50-1011): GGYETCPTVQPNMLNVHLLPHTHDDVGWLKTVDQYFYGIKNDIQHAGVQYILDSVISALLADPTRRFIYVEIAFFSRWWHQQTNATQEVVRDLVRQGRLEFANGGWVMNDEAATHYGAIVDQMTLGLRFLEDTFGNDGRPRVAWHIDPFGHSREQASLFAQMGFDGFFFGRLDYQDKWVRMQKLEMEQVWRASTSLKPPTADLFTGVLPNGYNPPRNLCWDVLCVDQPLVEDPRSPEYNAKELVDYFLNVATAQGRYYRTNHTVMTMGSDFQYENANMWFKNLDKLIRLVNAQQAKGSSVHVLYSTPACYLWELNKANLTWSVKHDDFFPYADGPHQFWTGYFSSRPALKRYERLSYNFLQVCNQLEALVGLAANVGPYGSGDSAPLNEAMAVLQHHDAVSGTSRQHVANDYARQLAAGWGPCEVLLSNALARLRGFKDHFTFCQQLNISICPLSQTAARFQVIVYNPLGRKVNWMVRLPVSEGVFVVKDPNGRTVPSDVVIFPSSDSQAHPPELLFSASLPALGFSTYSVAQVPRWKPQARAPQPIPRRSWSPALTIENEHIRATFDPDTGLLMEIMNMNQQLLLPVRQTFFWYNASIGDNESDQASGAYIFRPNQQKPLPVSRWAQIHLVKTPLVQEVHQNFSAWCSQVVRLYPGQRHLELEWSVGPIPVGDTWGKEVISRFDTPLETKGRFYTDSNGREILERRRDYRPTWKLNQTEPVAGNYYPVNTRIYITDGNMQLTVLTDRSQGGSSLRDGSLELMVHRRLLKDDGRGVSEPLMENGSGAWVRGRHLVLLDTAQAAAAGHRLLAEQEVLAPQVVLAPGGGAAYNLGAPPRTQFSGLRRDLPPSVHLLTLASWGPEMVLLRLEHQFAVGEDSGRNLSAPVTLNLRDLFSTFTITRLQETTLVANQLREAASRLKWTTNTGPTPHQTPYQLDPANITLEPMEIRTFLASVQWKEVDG
Description: HLM ([…]) was added to a solution of 2 (a) or 1 (b) ([…]) in a deuterated sodium acetate buffer (100 mM, pH, 5.6, 0.2 mL) and the enzymatic cleavage was monitored by ^1H NMR (600 MHz).
The enzymatic cleavage of 1 and 2 by human lysosomal mannosidase (HLM) was monitored by ^1H NMR (600 MHz) (Wilson et al., Org. Lett. 1999, 1, 443) Thus, HLM (20 mU) was added to a solution of 1 or 2 (80 nmol) dissolved in a deuterated sodium acetate buffer (100 mM, pH 5.6, 0.2 mL). The progress of the reaction was monitored by the integration of key signals of the starting material, the intermediate and final product. […] In this case, the released mannostatin A (5) inhibits HLM terminating further hydrolysis of 1. Mannostatin A is a potent inhibitor of retaining α-mannosidases (Ki=90 nM, HLM) (Li et al., Chem. Bio. Chem. 2004, 5, 1220) and thus the release of low concentrations of the active compound is sufficient to abolish enzyme activity.
Kinetic measurements. A solution of compound 1 or 2 (0.08 μmol) and human lysosomal mannosidase (HLM, 0.02 Unit) in deuterated sodium acetate buffer (0.1 M; pH 5.6; 0.2 ml) was incubated at 37° C., and ^1H NMR spectra (600 MHz) were recorded at different time intervals. Relevant signals were integrated to determine the rate of enzymatic hydrolysis, and the appearance of the intermediate and the final product.

[4] = Stability measurements in deuterated sodium acetate buffer by 1H NMR; format: physicochemical; settings: 0.4 mM, sodium acetate buffer pH 4.0, 37° C., 6 days
Description: Stability measurements. A solution of compound 1 or 2 (0.4 mM) in deuterated sodium acetate buffer (100 mM; pH 4.0; 0.2 ml) in a NMR tube was incubated at 37° C. for 6 days. ^1H NMR spectra were recorded every day.

[5] = system: α-galactosidase; assay: Negative enzyme control experiment, α-galactosidase; format: biochemical; settings: 0.1 Unit, MES buffer pH 6.5, 37° C., 20 h
Description: as §1, §2

[6] = Treatment with cell lysate in the presence of swainsonine and kifunensine; format: in vitro ADME
[7] = molecular target: T2, drosophila Golgi α-mannosidase II (dGMII) (Drosophila melanogaster, UniProt Q24451); assay: Affinity of N-benzyl mannostatin for Golgi α-mannosidase II; format: binding
T2 sequence (Q24451 1-1108): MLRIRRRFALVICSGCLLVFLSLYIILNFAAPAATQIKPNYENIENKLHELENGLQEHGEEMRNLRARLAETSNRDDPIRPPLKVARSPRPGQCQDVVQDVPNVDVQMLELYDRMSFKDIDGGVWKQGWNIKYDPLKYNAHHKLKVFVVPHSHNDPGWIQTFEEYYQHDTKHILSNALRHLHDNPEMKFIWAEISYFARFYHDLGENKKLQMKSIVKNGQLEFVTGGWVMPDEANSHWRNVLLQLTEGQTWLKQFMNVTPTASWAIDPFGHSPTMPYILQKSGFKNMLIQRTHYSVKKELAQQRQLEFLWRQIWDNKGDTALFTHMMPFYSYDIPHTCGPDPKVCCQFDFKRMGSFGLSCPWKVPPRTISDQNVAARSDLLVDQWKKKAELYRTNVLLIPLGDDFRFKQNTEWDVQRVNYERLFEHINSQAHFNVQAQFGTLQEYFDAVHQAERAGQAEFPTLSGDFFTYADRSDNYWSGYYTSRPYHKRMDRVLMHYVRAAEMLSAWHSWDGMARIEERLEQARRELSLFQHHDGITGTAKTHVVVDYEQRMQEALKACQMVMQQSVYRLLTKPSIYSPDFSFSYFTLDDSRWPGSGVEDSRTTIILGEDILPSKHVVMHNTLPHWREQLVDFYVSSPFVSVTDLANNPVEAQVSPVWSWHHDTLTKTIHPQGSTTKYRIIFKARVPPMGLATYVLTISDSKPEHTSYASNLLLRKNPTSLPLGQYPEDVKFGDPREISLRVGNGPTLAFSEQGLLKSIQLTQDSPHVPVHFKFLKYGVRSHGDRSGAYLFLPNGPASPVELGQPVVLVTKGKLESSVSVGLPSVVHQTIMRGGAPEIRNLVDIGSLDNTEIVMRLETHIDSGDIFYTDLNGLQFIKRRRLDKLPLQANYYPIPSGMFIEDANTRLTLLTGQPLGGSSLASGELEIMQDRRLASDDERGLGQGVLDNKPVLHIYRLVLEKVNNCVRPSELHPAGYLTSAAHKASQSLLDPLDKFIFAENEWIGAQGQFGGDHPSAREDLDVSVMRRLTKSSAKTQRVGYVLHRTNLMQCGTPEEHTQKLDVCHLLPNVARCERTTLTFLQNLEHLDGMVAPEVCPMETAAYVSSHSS
From the text: The finding was ultimately explained by careful examination of the crystal structure of dGMII with the synthetic inhibitor; see Kawatkar et al., J. Am. Chem. Soc., 128, 8310-8319 (2006).

Row | decomposition by α-glucosidase [1] | decomposition by α-L-fucosidase [2] | enzymatic hydrolysis of the prodrug by HLM [3] | decomposition in buffer [4] | decomposition by α-galactosidase [5] | decomposition in cell lysate [6] | affinity compared with mannostatin A [7] | Compound
1 | No decomposition of product was observed | No decomposition of product was observed | virtually no hydrolysis was observed | No decomposition of product was observed | No decomposition of product was observed | did not lead to decomposition | – | CSC1C(O)C(O)C(O)C1NC(=O)OCc1ccc(O[C@H]2O[C@H](CO)[C@@H](O)[C@H](O)[C@@H]2O)cc1 (stereo partly drawn) [Compound 1, 1D-(1,2,3,4/5)-4-[4-(α-D-mannopyranosyloxy)-benzyloxycarbonyl]amino-5-(methylsulfanyl)cyclopentane-1,2,3-triol]
2 | – | – | – | – | – | – | slightly reduced affinity | CSC1C(O)C(O)C(O)C1NCc1ccccc1 (stereo not shown) [N-benzyl mannostatin]

— patent US20100160207A1, “Feedback Prodrug” (University of Georgia Research Foundation, Inc., priority 2006, published 2010)
